# Laboratory results published in ChEMBL document CHEMBL1141910, “Combinatorial approaches towards the discovery of new tryptase inhibitors” (Bioorg Med Chem Lett, 2005).
# Experiments:
# Tryptase beta-1 [1] = biological target: T1, Tryptase beta-1 (Homo sapiens, UniProt Q15661); assay: Percentage inhibition against tryptase at 10 uM
# Target sequence in this assay (Q15661 31-275 limits assumed): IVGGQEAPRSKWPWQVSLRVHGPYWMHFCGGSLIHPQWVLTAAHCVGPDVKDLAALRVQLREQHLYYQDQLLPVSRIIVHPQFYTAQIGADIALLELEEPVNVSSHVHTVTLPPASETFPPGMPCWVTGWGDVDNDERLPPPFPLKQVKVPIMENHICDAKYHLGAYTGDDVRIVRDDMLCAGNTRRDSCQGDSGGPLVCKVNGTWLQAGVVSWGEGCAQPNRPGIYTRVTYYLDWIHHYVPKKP
# Tryptase beta-1 [2] = biological target: T1, Tryptase beta-1; assay: Inhibitory concentration against tryptase
# Target sequence in this assay (Q15661 whole entry): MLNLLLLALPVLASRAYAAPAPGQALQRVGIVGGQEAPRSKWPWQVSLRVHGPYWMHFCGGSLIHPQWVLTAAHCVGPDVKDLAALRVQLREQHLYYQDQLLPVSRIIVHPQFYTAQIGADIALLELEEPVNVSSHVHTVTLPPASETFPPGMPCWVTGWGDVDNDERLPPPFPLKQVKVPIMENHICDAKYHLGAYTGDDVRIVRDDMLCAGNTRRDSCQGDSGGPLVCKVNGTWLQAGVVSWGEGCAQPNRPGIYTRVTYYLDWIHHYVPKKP
SMILES,inhibition (Tryptase beta-1 [1]),IC50 (Tryptase beta-1 [2])
CN(CCC(=O)NCCCC[C@@H]1NC(=O)[C@H](CCCCNC(=O)CCCN=C(N)N)NC1=O)C(=N)N,36.7%,
N=C(N)Nc1ccc(C(=O)NCCCC[C@@H]2NC(=O)[C@H](CC(=O)Nc3ccc(C(=N)N)cc3)NC2=O)cc1,73.9%,
N=C(N)Nc1ccc(C(=O)NCCCC[C@@H]2NC(=O)[C@H](CC(=O)Nc3cccc(C(=N)N)c3)NC2=O)cc1,47.3%,
CN(CCC(=O)NCCCC[C@@H]1NC(=O)[C@H](CC(=O)Nc2cccc(C(=N)N)c2)NC1=O)C(=N)N,62.6%,12.8 µM
N=C(N)NCCCC(NC(=O)c1ccccc1)C(=O)O (configuration not stated),7.53%,
N=C(N)NCCCC(=O)O,8.92%,
N=C(N)NCCC[C@H](NC(=O)OCc1ccccc1)C(=O)NCCCC[C@@H]1NC(=O)[C@H](CC(=O)Nc2ccc(C(=N)N)cc2)NC1=O,41.6%,
N=C(N)NCCCCC(=O)NCCCC[C@@H]1NC(=O)[C@H](CCCCNC(=O)[C@H](CCCNC(=N)N)NC(=O)OCc2ccccc2)NC1=O,68%,5.7 µM
N=C(N)NCC(=O)NCCCC[C@@H]1NC(=O)[C@H](CC(=O)Nc2cccc(C(=N)N)c2)NC1=O,58.6%,19.9 µM
N=C(N)NCCC(=O)O,-6%,
N=C(N)Nc1ccc(C(=O)O)cc1,38.8%,
N=C(N)NCCCC(NC(=O)OCC1c2ccccc2-c2ccccc21)C(=O)NCCCC[C@@H]1NC(=O)[C@H](CC(=O)Nc2ccc(C(=N)N)cc2)NC1=O (some centres not stated),64.5%,
N=C(N)NCCCC(=O)NCCCC[C@@H]1NC(=O)[C@H](CCCCNC(=O)[C@H](CCCNC(=N)N)NC(=O)c2ccccc2)NC1=O,80.5%,2.4 µM
N=C(N)NCCCCC(=O)O,0.23%,
N=C(N)NCCC[C@H](N)C(=O)O,3.71%,
N=C(N)NCCC[C@H](NC(=O)OCc1ccccc1)C(=O)NCCCC[C@@H]1NC(=O)[C@H](CC(=O)Nc2cccc(C(=N)N)c2)NC1=O,59%,
N=C(N)NCCCC(=O)NCCCC[C@@H]1NC(=O)[C@H](CCCCNC(=O)CCCNC(=N)N)NC1=O,59.3%,4.7 µM
CN(CCC(=O)NCCCC[C@@H]1NC(=O)[C@H](CCCCNC(=O)CCNC(=N)N)NC1=O)C(=N)N,,5.9 µM
N=C(N)NCCCC(=O)NCCCC[C@@H]1NC(=O)[C@H](CC(=O)Nc2cccc(C(=N)N)c2)NC1=O,54.4%,21.3 µM
N=C(N)c1ccc(C(=O)O)cc1,2.9%,

SMILES,inhibition (Tryptase beta-1 [1]),IC50 (Tryptase beta-1 [2])
CN(CCC(=O)NCCCC[C@@H]1NC(=O)[C@H](CCCCNC(=O)CCN=C(N)N)NC1=O)C(=N)N,51.7%,
N=C(N)NCCCC(NC(=O)OCC1c2ccccc2-c2ccccc21)C(=O)NCCCC[C@@H]1NC(=O)[C@H](CC(=O)/N=C(\N)NNCCCc2ccccc2)NC1=O (some centres not stated),49.3%,
CN(CCC(=O)O)C(=N)N,2.55%,
N=C(N)NCCC[C@H](NC(=O)c1ccccc1)C(=O)NCCCC[C@@H]1NC(=O)[C@H](CC(=O)Nc2cccc(C(=N)N)c2)NC1=O,70.6%,12.4 µM
N=C(N)NCCC[C@H](NC(=O)OCc1ccccc1)C(=O)NCCCC[C@@H]1NC(=O)[C@H](CCCCNC(=O)[C@H](CCCN=C(N)N)NC(=O)OCc2ccccc2)NC1=O,48.5%,4.1 µM
N=C(N)c1cccc(NC(=O)C[C@@H]2NC(=O)[C@H](CCCCNC(=O)CN3CCN=C3N)NC2=O)c1,47.7%,
N=C(N)NCCCC(NC(=O)OCC1c2ccccc2-c2ccccc21)C(=O)NCCCC[C@@H]1NC(=O)[C@H](CC(=O)Nc2cccc(C(=N)N)c2)NC1=O (some centres not stated),62.6%,9.09 µM
N=C(N)NCCCCC(=O)NCCCC[C@@H]1NC(=O)[C@H](CCCCNC(=O)[C@H](CCCNC(=N)N)NC(=O)c2ccccc2)NC1=O,47.5%,9.3 µM
NC1=NCCN1CC(=O)O,3.24%,
N=C(N)NCCC(=O)NCCCC[C@@H]1NC(=O)[C@H](CC(=O)Nc2cccc(C(=N)N)c2)NC1=O,76.5%,23.6 µM
N=C(N)NCCCC(=O)NCCCC[C@@H]1NC(=O)[C@H](CCCCNC(=O)[C@H](CCCNC(=N)N)NC(=O)OCc2ccccc2)NC1=O,83%,2.2 µM
N=C(N)NCC(=O)O,-3%,
N=C(N)NCCC[C@H](NC(=O)c1ccccc1)C(=O)NCCCC[C@@H]1NC(=O)[C@H](CC(=O)Nc2ccc(C(=N)N)cc2)NC1=O,45%,
N=C(N)NCCC[C@H](NC(=O)c1ccccc1)C(=O)NCCCC[C@@H]1NC(=O)[C@H](CCCCNC(=O)CCNC(=N)N)NC1=O,31.2%,
N=C(N)NCCCC(NC(=O)OCc1ccccc1)C(=O)O (configuration not stated),1.97%,
N=C(N)NNC(=O)C[C@@H]1NC(=O)[C@H](CCCCNC(=O)c2ccc(NC(=N)N)cc2)NC1=O,42.5%,
N=C(N)Nc1ccc(C(=O)NCCCC[C@@H]2NC(=O)[C@H](CCCCNC(=O)CN3CCN=C3N)NC2=O)cc1,61.1%,
N=C(N)NCCC[C@H](NC(=O)OCc1ccccc1)C(=O)NCCCC[C@@H]1NC(=O)[C@H](CCCCNC(=O)[C@H](CCCN=C(N)N)NC(=O)c2ccccc2)NC1=O,43.3%,
N=C(N)NCCCCC(=O)NCCCC[C@@H]1NC(=O)[C@H](CCCCNC(=O)CCCNC(=N)N)NC1=O,44.4%,
NC(N)=Nc1ccc(C(=O)NCCCC[C@@H]2NC(=O)[C@H](CCCCNC(=O)CN3CCN=C3N)NC2=O)cc1,,4.4 µM
